Source: paper PMC5218480 (PLoS ONE, 2017)

System: MV-4-11 cells
Assay: Gene expression microarray analysis (Affymetrix PrimeView) and GSEA
Type: cell-based, human
Design: RFU PODN (11730768_x_at) / Fold change /veh PODN (11730768_x_at) / RFU LINC00158 (11744669_a_at) / Fold change /veh LINC00158 (11744669_a_at) / RFU DUSP10 (11751237_a_at) / Fold change /veh DUSP10 (11751237_a_at) / RFU ID3 (11757404_x_at) / Fold change /veh ID3 (11757404_x_at) / RFU PLEKHG5 (11737974_s_at) / Fold change /veh PLEKHG5 (11737974_s_at) / RFU LRRC4B (11730491_at) / Fold change /veh LRRC4B (11730491_at) / RFU GIMAP4 (11747438_a_at) / Fold change /veh GIMAP4 (11747438_a_at) / RFU KRT8 (11758183_x_at) / Fold change /veh KRT8 (11758183_x_at) / RFU CNN1 (11734310_a_at) / Fold change /veh CNN1 (11734310_a_at) / RFU VPS37D (11726825_at) / Fold change /veh VPS37D (11726825_at) / RFU C10orf10 (11716522_x_at) / Fold change /veh C10orf10 (11716522_x_at) / RFU KIR2DL2 /// KIR2DL4 /// KIR2DL5A /// KIR2DL5B /// KIR2DS1 /// KIR2DS2 /// KIR2DS3 /// KIR2DS4 /// KIR3DL3 /// KIR3DL3 /// KIR3DS1 (11738374_at) / Fold change /veh KIR2DL2 /// KIR2DL4 /// KIR2DL5A /// KIR2DL5B /// KIR2DS1 /// KIR2DS2 /// KIR2DS3 /// KIR2DS4 /// KIR3DL3 /// KIR3DL3 /// KIR3DS1 (11738374_at) / RFU C1QL1 (11718748_at) / Fold change /veh C1QL1 (11718748_at) / RFU TMPRSS4 (11747572_a_at) / Fold change /veh TMPRSS4 (11747572_a_at) / RFU HAMP (11756126_x_at) / Fold change /veh HAMP (11756126_x_at) / RFU RNFT2 (11725882_a_at) / Fold change /veh RNFT2 (11725882_a_at) / RFU NR4A2 (11747474_a_at) / Fold change /veh NR4A2 (11747474_a_at) / RFU ABCC12 (11746883_a_at) / Fold change /veh ABCC12 (11746883_a_at) / RFU TMEM136 (11760407_x_at) / Fold change /veh TMEM136 (11760407_x_at) / RFU CLDN22 /// WWC2 (11732394_at) / Fold change /veh CLDN22 /// WWC2 (11732394_at) / RFU HLA-DPB1 (11760878_x_at) / Fold change /veh HLA-DPB1 (11760878_x_at) / RFU SPINT1 (11716480_a_at) / Fold change /veh SPINT1 (11716480_a_at) / RFU GAP43 (11754022_s_at) / Fold change /veh GAP43 (11754022_s_at) / RFU A4GNT (11735810_at) / Fold change /veh A4GNT (11735810_at) / RFU PRB3 (11715151_x_at) / Fold change /veh PRB3 (11715151_x_at) / RFU TUBB4B (11761932_at) / Fold change /veh TUBB4B (11761932_at) / RFU CAPN14 (11732068_a_at) / Fold change /veh CAPN14 (11732068_a_at) / RFU TMCC2 (11721928_a_at) / Fold change /veh TMCC2 (11721928_a_at) / RFU IRGQ (11745062_a_at) / Fold change /veh IRGQ (11745062_a_at) / RFU FAM174B (11720279_a_at) / Fold change /veh FAM174B (11720279_a_at) / RFU TMPRSS4 (11748680_a_at) / Fold change /veh TMPRSS4 (11748680_a_at) / RFU FAM212B (11763350_a_at) / Fold change /veh FAM212B (11763350_a_at) / RFU PLEKHG5 (11743358_a_at) / Fold change /veh PLEKHG5 (11743358_a_at) / RFU ZSCAN30 (11745921_a_at) / Fold change /veh ZSCAN30 (11745921_a_at) / RFU CMKLR1 (11741424_a_at) / Fold change /veh CMKLR1 (11741424_a_at) / RFU LOC101060620 /// MAPK8IP1 (11723275_at) / Fold change /veh LOC101060620 /// MAPK8IP1 (11723275_at) / RFU SPTSSB (11747773_x_at) / Fold change /veh SPTSSB (11747773_x_at) / RFU PRSS12 (11739890_at) / Fold change /veh PRSS12 (11739890_at) / RFU BIN1 (11741810_x_at) / Fold change /veh BIN1 (11741810_x_at) / RFU WNT11 (11732464_a_at) / Fold change /veh WNT11 (11732464_a_at) / RFU C10orf10 (11716521_a_at) / Fold change /veh C10orf10 (11716521_a_at) / RFU C5orf56 (11738089_at) / Fold change /veh C5orf56 (11738089_at) / RFU CYB561 (11721691_x_at) / Fold change /veh CYB561 (11721691_x_at) / RFU ANKRD19P (11752326_a_at) / Fold change /veh ANKRD19P (11752326_a_at) / RFU OR2T12 /// OR2T33 /// OR2T8 (11738714_s_at) / Fold change /veh OR2T12 /// OR2T33 /// OR2T8 (11738714_s_at) / RFU VCAN (11748164_a_at) / Fold change /veh VCAN (11748164_a_at) / RFU JSRP1 (11732532_at) / Fold change /veh JSRP1 (11732532_at) / RFU KRTAP10-11 (11738290_x_at) / Fold change /veh KRTAP10-11 (11738290_x_at) / RFU MYO3A (11730013_a_at) / Fold change /veh MYO3A (11730013_a_at) / RFU EBF3 (11725865_a_at) / Fold change /veh EBF3 (11725865_a_at) / RFU CAMK2N1 (11719241_x_at) / Fold change /veh CAMK2N1 (11719241_x_at) / RFU C5orf56 (11738088_a_at) / Fold change /veh C5orf56 (11738088_a_at) / RFU OLFML3 (11715873_a_at) / Fold change /veh OLFML3 (11715873_a_at) / RFU LOC100653217 /// NTM (11731650_a_at) / Fold change /veh LOC100653217 /// NTM (11731650_a_at) / RFU MAPK11 (11762145_a_at) / Fold change /veh MAPK11 (11762145_a_at) / RFU FIZ1 (11724087_x_at) / Fold change /veh FIZ1 (11724087_x_at) / RFU OASL (11726364_x_at) / Fold change /veh OASL (11726364_x_at) / RFU SOX15 (11748057_x_at) / Fold change /veh SOX15 (11748057_x_at) / RFU CD79A (11719716_a_at) / Fold change /veh CD79A (11719716_a_at) / RFU HIST1H1D (11736915_at) / Fold change /veh HIST1H1D (11736915_at) / RFU CASKIN2 (11723855_a_at) / Fold change /veh CASKIN2 (11723855_a_at) / RFU LOC730098 (11760151_x_at) / Fold change /veh LOC730098 (11760151_x_at) / RFU OR4N2 (11742367_at) / Fold change /veh OR4N2 (11742367_at) / RFU PRRT2 (11749266_a_at) / Fold change /veh PRRT2 (11749266_a_at) / RFU SNX32 (11753110_a_at) / Fold change /veh SNX32 (11753110_a_at) / RFU CDHR5 (11726645_a_at) / Fold change /veh CDHR5 (11726645_a_at) / RFU RCAN1 (11760418_a_at) / Fold change /veh RCAN1 (11760418_a_at) / RFU FAM167A (11723789_a_at) / Fold change /veh FAM167A (11723789_a_at) / RFU FAM26E (11764081_at) / Fold change /veh FAM26E (11764081_at) / RFU ISYNA1 (11749810_s_at) / Fold change /veh ISYNA1 (11749810_s_at) / RFU ACY1 (11761880_at) / Fold change /veh ACY1 (11761880_at) / RFU 11764098_at / Fold change /veh 11764098_at / RFU SAMD14 (11745864_x_at) / Fold change /veh SAMD14 (11745864_x_at) / RFU NPB (11741838_a_at) / Fold change /veh NPB (11741838_a_at) / RFU TMPRSS6 (11731388_a_at) / Fold change /veh TMPRSS6 (11731388_a_at) / RFU KRTAP10-2 (11738614_at) / Fold change /veh KRTAP10-2 (11738614_at) / RFU ARHGAP8 /// PRR5-ARHGAP8 (11727945_x_at) / Fold change /veh ARHGAP8 /// PRR5-ARHGAP8 (11727945_x_at) / RFU KRTAP5-7 /// NADSYN1 (11734609_at) / Fold change /veh KRTAP5-7 /// NADSYN1 (11734609_at) / RFU RASL12 (11751679_a_at) / Fold change /veh RASL12 (11751679_a_at) / RFU CDKN2B (11736163_a_at) / Fold change /veh CDKN2B (11736163_a_at) / RFU PRF1 (11729649_at) / Fold change /veh PRF1 (11729649_at) / RFU, ZNF638 /// ZNF638-IT1 / Fold change vs veh, ZNF638 /// ZNF638-IT1 / RFU, PANK3 / Fold change vs veh, PANK3 / RFU, SH3YL1 / Fold change vs veh, SH3YL1 / RFU, ZEB2 / Fold change vs veh, ZEB2 / RFU, NRIP1 / Fold change vs veh, NRIP1 / RFU, PTTG1IP / Fold change vs veh, PTTG1IP / RFU, CAPN2 / Fold change vs veh, CAPN2 / RFU, MED14 / Fold change vs veh, MED14 / RFU, SNORA58 / Fold change vs veh, SNORA58 / RFU, C1orf63 / Fold change vs veh, C1orf63 / RFU, LRRFIP1 / Fold change vs veh, LRRFIP1 / RFU, NDUFAF7 / Fold change vs veh, NDUFAF7 / RFU, SLC12A2 / Fold change vs veh, SLC12A2 / RFU, IBTK / Fold change vs veh, IBTK / RFU, ESF1 / Fold change vs veh, ESF1 / Fold change vs veh, TMEM50B / RFU, TAOK1 / Fold change vs veh, TAOK1 / RFU, ACBD3 / Fold change vs veh, ACBD3 / RFU, TMA16 / Fold change vs veh, TMA16 / RFU, RWDD3 / Fold change vs veh, RWDD3 / RFU, BCAT1 / Fold change vs veh, BCAT1 / RFU, EDEM3 / Fold change vs veh, EDEM3 / RFU, TMEM33 / Fold change vs veh, TMEM33 / RFU, WDR75 / Fold change vs veh, WDR75 / RFU, AHCTF1 / Fold change vs veh, AHCTF1 / RFU, TFRC / Fold change vs veh, TFRC / RFU, ZDHHC17 / Fold change vs veh, ZDHHC17 / RFU, NOM1 / Fold change vs veh, NOM1 / RFU, ARL8B / Fold change vs veh, ARL8B / RFU, ZBTB11 / Fold change vs veh, ZBTB11 / RFU, TAMM41 / Fold change vs veh, TAMM41 / RFU, KIAA1704 /// LOC100996395 / Fold change vs veh, KIAA1704 /// LOC100996395 / RFU, ING1 / Fold change vs veh, ING1 / RFU, TRMT61B / Fold change vs veh, TRMT61B / RFU, FUBP3 / Fold change vs veh, FUBP3 / RFU, TP53 / Fold change vs veh, TP53 / RFU, TNKS2 / Fold change vs veh, TNKS2 / RFU, ZFP14 / Fold change vs veh, ZFP14 / RFU, ACTR2 / Fold change vs veh, ACTR2 / RFU, PPP3R1 / Fold change vs veh, PPP3R1 / RFU, PIK3R1 / Fold change vs veh, PIK3R1 / RFU, HNRNPA1 / Fold change vs veh, HNRNPA1 / RFU, RNF170 / Fold change vs veh, RNF170 / RFU, ZNF28 / Fold change vs veh, ZNF28 / RFU, RNGTT / Fold change vs veh, RNGTT / RFU, OGT / Fold change vs veh, OGT / RFU, BRD1 / Fold change vs veh, BRD1 / RFU, MARS / Fold change vs veh, MARS / RFU, ZNF655 / Fold change vs veh, ZNF655 / RFU, FAHD1 / Fold change vs veh, FAHD1 / RFU, BDP1 / Fold change vs veh, BDP1 / RFU, LRRCC1 / Fold change vs veh, LRRCC1 / RFU, ARID1A / Fold change vs veh, ARID1A / RFU, ZNF146 / Fold change vs veh, ZNF146 / RFU, ZNF330 / Fold change vs veh, ZNF330 / RFU, GPN3 / Fold change vs veh, GPN3 / RFU, C9orf123 / Fold change vs veh, C9orf123 / RFU, N4BP2L2 / Fold change vs veh, N4BP2L2 / RFU, ARFIP1 / Fold change vs veh, ARFIP1 / RFU, FAM179B / Fold change vs veh, FAM179B / RFU, BCL10 / Fold change vs veh, BCL10 / RFU, UHRF1BP1L / Fold change vs veh, UHRF1BP1L / RFU, BET1 / Fold change vs veh, BET1 / RFU, CNOT2 / Fold change vs veh, CNOT2 / RFU, ZNF268 / Fold change vs veh, ZNF268 / Fold change vs veh, ZNF507 / RFU, DGCR2 / Fold change vs veh, DGCR2 / RFU, WDSUB1 / Fold change vs veh, WDSUB1 / Fold change vs veh, HSP90B1 /// MIR3652 / RFU, ADSS / Fold change vs veh, ADSS / RFU, GK / Fold change vs veh, GK / RFU, ZNF148 / Fold change vs veh, ZNF148 / RFU, TAF9 / Fold change vs veh, TAF9 / RFU, SLC1A5 / Fold change vs veh, SLC1A5 / RFU, SLMO2 / Fold change vs veh, SLMO2 / RFU, ABCC4 / Fold change vs veh, ABCC4 / RFU, LOC101060439 /// RAP1B / Fold change vs veh, LOC101060439 /// RAP1B / RFU, RFX7 / Fold change vs veh, RFX7 / RFU, GTPBP10 / Fold change vs veh, GTPBP10 / RFU, CNEP1R1 / Fold change vs veh, CNEP1R1 / RFU, BIVM-ERCC5 /// ERCC5 / Fold change vs veh, BIVM-ERCC5 /// ERCC5 / RFU, ILF3 / Fold change vs veh, ILF3 / RFU 11762660_at / Fold change /veh 11762660_at / RFU VCAN (11757783_s_at) / Fold change /veh VCAN (11757783_s_at) / RFU DDX43 (11728927_at) / Fold change /veh DDX43 (11728927_at) / RFU KRT8 (11758188_x_at) / Fold change /veh KRT8 (11758188_x_at) / RFU NKD1 (11759106_at) / Fold change /veh NKD1 (11759106_at) / RFU SRD5A1 (11742802_a_at) / Fold change /veh SRD5A1 (11742802_a_at) / RFU TPSAB1 /// TPSB2 (11721975_s_at) / Fold change /veh TPSAB1 /// TPSB2 (11721975_s_at) / RFU GSTM3 (11746129_a_at) / Fold change /veh GSTM3 (11746129_a_at) / RFU IL23R (11737362_x_at) / Fold change /veh IL23R (11737362_x_at) / RFU TMEM51 (11727254_a_at) / Fold change /veh TMEM51 (11727254_a_at) / RFU PIWIL2 (11732686_x_at) / Fold change /veh PIWIL2 (11732686_x_at) / RFU ORM1 (11744905_x_at) / Fold change /veh ORM1 (11744905_x_at) / RFU CCDC152 (11743942_at) / Fold change /veh CCDC152 (11743942_at) / RFU ECM1 (11717891_a_at) / Fold change /veh ECM1 (11717891_a_at) / RFU IL23R (11748794_a_at) / Fold change /veh IL23R (11748794_a_at) / RFU TNFAIP8L3 (11732012_x_at) / Fold change /veh TNFAIP8L3 (11732012_x_at) / RFU MBOAT4 (11741988_at) / Fold change /veh MBOAT4 (11741988_at) / RFU 11764193_at / Fold change /veh 11764193_at / RFU TMEM53 (11763286_at) / Fold change /veh TMEM53 (11763286_at) / RFU MAGEB2 (11727129_at) / Fold change /veh MAGEB2 (11727129_at) / RFU TMEM200A (11744735_a_at) / Fold change /veh TMEM200A (11744735_a_at) / RFU CCDC152 (11751479_a_at) / Fold change /veh CCDC152 (11751479_a_at) / RFU FAM211A (11726209_a_at) / Fold change /veh FAM211A (11726209_a_at) / RFU RGS16 (11746705_a_at) / Fold change /veh RGS16 (11746705_a_at) / RFU VCAN (11755009_s_at) / Fold change /veh VCAN (11755009_s_at) / RFU RHOB (11743442_s_at) / Fold change /veh RHOB (11743442_s_at) / RFU RGS16 (11720943_a_at) / Fold change /veh RGS16 (11720943_a_at) / RFU RGS16 (11720944_at) / Fold change /veh RGS16 (11720944_at) / RFU, VPS4B / Fold change vs veh, VPS4B / RFU, CREB1 / Fold change vs veh, CREB1 / RFU, DNAJC13 / Fold change vs veh, DNAJC13 / RFU, GNAQ / Fold change vs veh, GNAQ / RFU, CDK5R1 / Fold change vs veh, CDK5R1 / RFU, ZRANB3 / Fold change vs veh, ZRANB3 / RFU, CUL4A / Fold change vs veh, CUL4A / RFU, CCNY / Fold change vs veh, CCNY / RFU, UFL1 / Fold change vs veh, UFL1 / RFU, COG3 / Fold change vs veh, COG3 / RFU, DIAPH2 / Fold change vs veh, DIAPH2 / RFU, SKA2 / Fold change vs veh, SKA2 / RFU, AFF3 / Fold change vs veh, AFF3 / RFU, LMF1 / Fold change vs veh, LMF1 / RFU, IPO11 / Fold change vs veh, IPO11 / RFU, DFFB / Fold change vs veh, DFFB / RFU, FOXP1 / Fold change vs veh, FOXP1 / RFU, CARD8 / Fold change vs veh, CARD8 / RFU, STRN3 / Fold change vs veh, STRN3 / RFU, ADK / Fold change vs veh, ADK / RFU, RASSF2 / Fold change vs veh, RASSF2 / RFU, WIPF1 / Fold change vs veh, WIPF1 / RFU, LARP1B / Fold change vs veh, LARP1B / RFU, RASA1 / Fold change vs veh, RASA1 / RFU, RB1 / Fold change vs veh, RB1 / RFU, PPFIA1 / Fold change vs veh, PPFIA1 / RFU, MAT2A / Fold change vs veh, MAT2A / RFU, CCT5 / Fold change vs veh, CCT5 / RFU, WDR92 / Fold change vs veh, WDR92 / RFU, CUX1 / Fold change vs veh, CUX1 / RFU, TTC7A / Fold change vs veh, TTC7A / RFU, TMEM135 / Fold change vs veh, TMEM135 / RFU, DEPTOR / Fold change vs veh, DEPTOR / RFU, CPM / Fold change vs veh, CPM / RFU, DNAJB6 / Fold change vs veh, DNAJB6 / RFU, CACNA2D3 / Fold change vs veh, CACNA2D3 / RFU, DTX4 / Fold change vs veh, DTX4 / RFU, TFCP2 / Fold change vs veh, TFCP2 / RFU, GMCL1 /// GMCL1P1 / Fold change vs veh, GMCL1 /// GMCL1P1 / RFU, AEBP2 / Fold change vs veh, AEBP2 / RFU, SNHG1 /// SNORD22 /// SNORD25 /// SNORD26 /// SNORD27 /// SNORD28 /// SNORD29 /// SNORD31 / Fold change vs veh, SNHG1 /// SNORD22 /// SNORD25 /// SNORD26 /// SNORD27 /// SNORD28 /// SNORD29 /// SNORD31 / Fold change (Aza/veh), C12orf56 (ProbeSet 11735607_a_at) / Fold change (ACY-1035/veh), C12orf56 (ProbeSet 11735607_a_at) / Fold change (Aza/veh), FGFR1OP (ProbeSet 11751329_s_at) / Fold change (ACY-1035/veh), FGFR1OP (ProbeSet 11751329_s_at) / Fold change (Aza/veh), VPS36 (ProbeSet 11739960_a_at) / Fold change (ACY-1035/veh), VPS36 (ProbeSet 11739960_a_at) / RFU SYPL1 (11715823_x_at) / Fold change /veh SYPL1 (11715823_x_at) / RFU IGFBP7 (11715501_s_at) / Fold change /veh IGFBP7 (11715501_s_at) / RFU REEP3 (11722064_at) / Fold change /veh REEP3 (11722064_at) / RFU IGLL1 (11728026_x_at) / Fold change /veh IGLL1 (11728026_x_at): dose or concentration left out as unconfirmed
Settings: gene VPS36; ACY-1035 vs DMSO; LIST F

Question: How did the “Fold change (ACY-1035/veh), VPS36 (ProbeSet 11739960_a_at)” value turn out when Nc1ccc(-c2cccs2)cc1NC(=O)c1ccc2c(c1)cc(C1CC1)n2CCN1CCOCC1 [ACY-1035] was run?
Answer: The value was 0.53.
